Results from patent US20030134420A1, “Methods and compositions for gene delivery” (priority 2000, published 2003).

Key:
[1] = tested on: pCMVLuc luciferase expression per gram of liver; assay: Luciferase expression in liver after tail vein injection of pCMVLuc polyplexes/formulants; details: mice; for Luciferase Average [pg./g liver]: 15 μg of DNA per injection
[2] = Biodistribution and clearance of 125I-pCMVβGal; format: in vivo; details: mice
Description: The biodistribution of ^125I-pCMV βGal was also studied in mice. Mice were injected with a dose of 300 μL containing 50 μg/mL of DNA. The distribution of free DNA, free DNA and TCDC, encapsulated in a polyplex comprised of block copolymer (PEG5k-b-(Cys-S—C18)10-b-(Lys)45) and the polyplex with TCDC were tested after 5 (FIG. 17A) and 60 (FIG. 17B) minutes. […] The clearance of ^125I-pCMVβGal was also studied using the ABC Polymer, (PEG5k-b-(Cys-S—C18)10-b-(Lys)45) (BP-A).

## C[C@H](CCC(=O)NCCC[N+](C)(C)CC(O)CS(=O)(=O)[O-])[C@H]1CC[C@H]2[C@@H]3[C@H](O)C[C@@H]4C[C@H](O)CC[C@]4(C)[C@H]3C[C@H](O)[C@]12C (stereo partly drawn) [CHAPSO]
[1]; formulant dose 0.50%
  Luciferase Average [pg./g liver]: 188 pg./g liver

## CCCCCCC(=O)OC[C@H](COP(=O)([O-])OCC[N+](C)(C)C)OC(=O)CCCCCC [DHPC]
[1]; formulant dose 0.40%
  Luciferase Average [pg./g liver]: 470 pg./g liver
[1]; 200 μL dose, 15 μg/mL pCMVLuc, Trigal copolymer polyplexes
  effect of addition of formulant on luciferase expression (FIG. 15): greatly enhances the expression of luciferase

## C[C@H](CCC(=O)N(CCCNC(=O)[C@H](O)[C@@H](O)[C@H](O)[C@H](O)CO)CCCNC(=O)[C@H](O)[C@@H](O)[C@H](O)[C@H](O)CO)[C@H]1CC[C@H]2[C@@H]3CC[C@@H]4C[C@H](O)CC[C@]4(C)[C@H]3C[C@H](O)[C@]12C [Deoxy BIGCHAP]
[1]; formulant dose 0.50%
  Luciferase Average [pg./g liver]: 129 pg./g liver

## C[C@H](CCC(=O)NCCC[N+](C)(C)CCCS(=O)(=O)[O-])[C@H]1CC[C@H]2[C@@H]3[C@H](O)C[C@@H]4C[C@H](O)CC[C@]4(C)[C@H]3C[C@H](O)[C@]12C.O [CHAPS, 3-[(3-Cholamidopropyl)dimethylammonio]1-propanesulfonate hydrate]
[1]; formulant dose 0.50%
  Luciferase Average [pg./g liver]: 178 pg./g liver

## C[C@H](CCC(=O)NCCCOCCOCCOCCCN)[C@H]1CC[C@H]2C3[C@H](O)C[C@@H]4C[C@H](O)CCC4(C)[C@H]3C[C@H](O)[C@]12C (stereo partly drawn)
[1]; formulant dose 0.10%
  Luciferase Average [pg./g liver]: 3964 pg./g liver

## C[C@H](CCC(=O)NCCS(=O)(=O)[O-])[C@H]1CC[C@H]2[C@@H]3[C@@H](O)C[C@@H]4C[C@H](O)CC[C@]4(C)[C@H]3CC[C@]12C.[Na+] [TCDC]
[1]; formulant dose 0.50%
  Luciferase Average [pg./g liver]: 517 pg./g liver
[2]; 300 μL dose, 50 μg/mL DNA, BP-A polyplex with TCDC, 5 and 60 minutes
  biodistribution of 125I-pCMVβGal (FIG. 17): redirects the polyplex from the lungs and other organs to the blood
[2]; ABC Polymer (BP-A) polyplex, administration of TCDC
  clearance / half-life of 125I-pCMVβGal DNA: greatly enhanced the half-life of the DNA
